What was measured:
Format in all cases: in vivo
[1] = tested on: Glycine max; assay: Crop compatibility pre-emergence (greenhouse pot trial); settings: application rate 80 g/ha, effect vs untreated controls
Excerpt: (§1) Seeds of mono- and dicotyledonous weeds and crop plants were laid out in plastic or organic plant pots and covered with soil. The compounds of the invention formulated in the form of wettable powders (WP) or emulsion concentrates (EC) were then applied to the surface of the covering soil as an aqueous suspension or emulsion with addition of 0.5% additive at a water application rate equivalent to 600 L/ha. After the treatment, the pots were placed in a greenhouse and kept under good growth conditions for the test plants. After about 3 weeks, the efficacy of the preparations was scored visually as a percentage by comparison with untreated controls. For example, 100% efficacy=plants have died, 0% efficacy=like control plants.
(§2) Crop compatibilities were also scored correspondingly.
(§3) The effects observed are reported here on selected crop plants by comparison with the untreated controls (values in %).

[2] = tested on: Zea mays; assay: as above; settings: application rate 80 g/ha, effect vs untreated controls
Excerpt: as §1, §2, §3

[3] = tested on: Setaria viridis; assay: Herbicidal action pre-emergence (greenhouse pot trial); settings: application rate 320 g/ha, scored after about 3 weeks
Excerpt: as §1, with “control plants. Tables B1 to B16 below show the efficacies of selected compounds of the general formula (I) according to tables I.1 to I.60 on various harmful plants and an application rate corresponding to 320 g/ha or lower that were obtained by the aforementioned trial method.” for “control plants.”

[4] = tested on: Abutilon theophrasti; assay: as above; settings: scored after about 3 weeks
Excerpt: as §1, with “control plants. Tables B1 to B16 below show the efficacies of selected compounds of the general formula (I) according to tables I.1 to I.60 on various harmful plants and an application rate corresponding to 320 g/ha or lower that were obtained by the aforementioned trial method.” for “control plants.”

[5] = tested on: Pharbitis purpurea; assay: as above; settings: application rate 320 g/ha
Excerpt: as §1, with “control plants. Tables B1 to B16 below show the efficacies of selected compounds of the general formula (I) according to tables I.1 to I.60 on various harmful plants and an application rate corresponding to 320 g/ha or lower that were obtained by the aforementioned trial method.” for “control plants.”

[6] = tested on: Viola tricolor; assay: as above; settings: scored after about 3 weeks
Excerpt: as §1, with “control plants. Tables B1 to B16 below show the efficacies of selected compounds of the general formula (I) according to tables I.1 to I.60 on various harmful plants and an application rate corresponding to 320 g/ha or lower that were obtained by the aforementioned trial method.” for “control plants.”

[7] = tested on: Amaranthus retroflexus; assay: as above; settings: scored after about 3 weeks
Excerpt: as §1, with “control plants. Tables B1 to B16 below show the efficacies of selected compounds of the general formula (I) according to tables I.1 to I.60 on various harmful plants and an application rate corresponding to 320 g/ha or lower that were obtained by the aforementioned trial method.” for “control plants.”

[8] = tested on: Echinochloa crus-galli; assay: as above; settings: application rate 320 g/ha, scored after about 3 weeks
Excerpt: as §1, with “control plants. Tables B1 to B16 below show the efficacies of selected compounds of the general formula (I) according to tables I.1 to I.60 on various harmful plants and an application rate corresponding to 320 g/ha or lower that were obtained by the aforementioned trial method.” for “control plants.”

[9] = tested on: Matricaria inodora; assay: as above; settings: scored after about 3 weeks
Excerpt: as §1, with “control plants. Tables B1 to B16 below show the efficacies of selected compounds of the general formula (I) according to tables I.1 to I.60 on various harmful plants and an application rate corresponding to 320 g/ha or lower that were obtained by the aforementioned trial method.” for “control plants.”

[10] = tested on: Oryza sativa; assay: Crop compatibility post-emergence (greenhouse pot trial)
In short: (§4)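 Crop seeds sown in sandy loam and grown in the greenhouse 2 to 3 weeks were treated at the one-leaf stage. WP or EC formulations were sprayed as aqueous suspension/emulsion with 0.5% additive at 600 L/ha. Damage was scored visually about 3 weeks later versus untreated controls (0% = like control, 100% = dead).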

[11] = tested on: Setaria viridis; assay: Herbicidal action post-emergence (greenhouse pot trial); settings: application rate 20 g/ha, scored visually after about 3 weeks vs untreated controls
In short: (§5)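 Post-emergence spray at one-leaf stage (2–3 wk after sowing, sandy loam, greenhouse); WP/EC in water + 0.5% additive; 600 L/ha; rate 80 g/ha or less. Visual % efficacy at ~3 wk vs untreated (100 = dead).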

[12] = tested on: Stellaria media; assay: as above; settings: application rate 20 g/ha, scored visually after about 3 weeks vs untreated controls
In short: as §5

[13] = tested on: Abutilon theophrasti; assay: as above; settings: application rate 20 g/ha, scored visually after about 3 weeks vs untreated controls
In short: as §5

[14] = tested on: Pharbitis purpurea; assay: as above; settings: application rate 20 g/ha
In short: as §5

[15] = tested on: Alopecurus myosuroides; assay: as above; settings: application rate 20 g/ha, scored visually after about 3 weeks vs untreated controls
In short: as §5

[16] = tested on: Viola tricolor; assay: as above; settings: application rate 20 g/ha
In short: as §5

[17] = tested on: Amaranthus retroflexus; assay: as above; settings: application rate 20 g/ha, scored visually after about 3 weeks vs untreated controls
In short: as §5

[18] = tested on: Echinochloa crus-galli; assay: as above; settings: application rate 20 g/ha, scored visually after about 3 weeks vs untreated controls
In short: as §5

[19] = tested on: Matricaria inodora; assay: as above; settings: application rate 20 g/ha, scored visually after about 3 weeks vs untreated controls
In short: as §5

[20] = tested on: Veronica persica; assay: as above; settings: application rate 20 g/ha
In short: as §5

[21] = tested on: Polygonum convolvulus; assay: as above; settings: application rate 20 g/ha, scored visually after about 3 weeks vs untreated controls
In short: as §5

[22] = tested on: Digitaria sanguinalis; assay: as above; settings: application rate 20 g/ha
In short: as §5

[23] = tested on: Triticum aestivum; assay: Crop compatibility post-emergence (greenhouse pot trial)
In short: as §4

[24] = tested on: Veronica persica; assay: Herbicidal action pre-emergence (greenhouse pot trial); settings: application rate 80 g/ha
Excerpt: as §1, with “control plants. Tables B1 to B16 below show the efficacies of selected compounds of the general formula (I) according to tables I.1 to I.60 on various harmful plants and an application rate corresponding to 320 g/ha or lower that were obtained by the aforementioned trial method.” for “control plants.”

[25] = tested on: Zea mays; assay: Crop compatibility post-emergence (greenhouse pot trial); settings: application rate 20 g/ha
In short: as §4

[26] = tested on: Lolium rigidum; assay: Herbicidal action post-emergence (greenhouse pot trial); settings: application rate 20 g/ha, scored visually after about 3 weeks vs untreated controls
In short: as §5

Row | Structure (SMILES) | Glycine max (Efficacy in %) [1] [%] | Zea mays (Efficacy in %) [2] [%] | Setaria viridis (Efficacy in %) [11] [%] | Stellaria media (Efficacy in %) [12] [%] | Abutilon theophrasti (Efficacy in %) [13] [%] | Pharbitis purpurea (Efficacy in %) [14] [%] | Alopecurus myosuroides (Efficacy in %) [15] [%] | Viola tricolor (Efficacy in %) [16] [%] | Amaranthus retroflexus (Efficacy in %) [17] [%] | Echinochloa crus-galli (Efficacy in %) [18] [%] | Matricaria inodora (Efficacy in %) [19] [%] | Veronica persica (Efficacy in %) [20] [%] | Polygonum convolvulus (Efficacy in %) [21] [%] | Digitaria sanguinalis (Efficacy in %) [22] [%] | Triticum aestivum (Efficacy in %) ([23]; application rate 20 g/ha) [%] | Triticum aestivum (Efficacy in %) ([23]; application rate 5 g/ha) [%] | Oryza sativa (Efficacy in %) ([10]; application rate 20 g/ha) [%] | other results
1 | COCCOCCOC(=O)C(C)Sc1cc(-n2c(=O)cc(C(F)(F)F)n(C)c2=O)c(F)cc1Cl (stereo not drawn) [I.1-23] | 0 | 10 |  |  |  |  |  |  |  |  |  |  |  |  |  |  |  | Setaria viridis (Efficacy in %) [3]: 100%; Abutilon theophrasti (Efficacy in %) ([4]; application rate 320 g/ha): 100%; Pharbitis purpurea (Efficacy in %) [5]: 100%; Viola tricolor (Efficacy in %) ([6]; application rate 320 g/ha): 100%; Amaranthus retroflexus (Efficacy in %) ([7]; application rate 320 g/ha): 100%; Echinochloa crus-galli (Efficacy in %) [8]: 100%; Matricaria inodora (Efficacy in %) ([9]; application rate 320 g/ha): 100%; Oryza sativa (Efficacy in %) ([10]; application rate 5 g/ha): 10%
2 | COC(C)COC(=O)C(C)Sc1cc(-n2c(=O)cc(C(F)(F)F)n(C)c2=O)c(F)cc1Cl (stereo not drawn) [I.1-51] |  |  | 100 | 80 | 100 | 100 | 80 | 100 | 100 | 100 | 100 | 100 | 100 | 100 | 20 |  |  | 
3 | CC(Sc1cc(-n2c(=O)cc(C(F)(F)F)n(C)c2=O)c(F)cc1Cl)C(=O)OCC1CCCCO1 (stereo not drawn) [I.1-91] | 20 | 0 |  |  | 100 | 100 |  | 100 | 100 |  | 100 | 100 | 100 |  |  | 10 | 10 | Abutilon theophrasti (Efficacy in %) ([4]; application rate 80 g/ha): 100%; Viola tricolor (Efficacy in %) ([6]; application rate 80 g/ha): 100%; Amaranthus retroflexus (Efficacy in %) ([7]; application rate 80 g/ha): 100%; Matricaria inodora (Efficacy in %) ([9]; application rate 80 g/ha): 100%; Veronica persica (Efficacy in %) [24]: 100%; Zea mays (Efficacy in %) [25]: 20%
4 | CC(Sc1cc(-n2c(=O)cc(C(F)(F)F)n(C)c2=O)c(F)cc1Cl)C(=O)OC1CCSCC1 (stereo not drawn) [I.1-132] | 20 | 0 |  | 80 | 100 | 100 |  | 100 | 100 |  | 100 | 100 | 100 |  |  | 10 | 0 | Abutilon theophrasti (Efficacy in %) ([4]; application rate 80 g/ha): 100%; Viola tricolor (Efficacy in %) ([6]; application rate 80 g/ha): 90%; Amaranthus retroflexus (Efficacy in %) ([7]; application rate 80 g/ha): 100%; Matricaria inodora (Efficacy in %) ([9]; application rate 80 g/ha): 100%; Zea mays (Efficacy in %) [25]: 20%
5 | CCC(Sc1cc(-n2c(=O)cc(C(F)(F)F)n(C)c2=O)c(F)cc1Cl)C(=O)OCC1CCCOC1 (stereo not drawn) [I.2-92, Tetrahydro-2H-pyran-3-ylmethyl 2-({2-chloro-4-fluoro-5-[3-methyl-2,6-dioxo-4-(trifluoromethyl)-3,6-dihydropyrimidin-1(2H)-yl]phenyl}sulfanyl)butanoate] |  |  | 100 | 100 | 100 | 100 | 80 | 100 | 100 | 100 | 100 | 100 | 100 | 100 |  | 20 |  | 
6 | CCC(C)C(Sc1cc(-n2c(=O)cc(C(F)(F)F)n(C)c2=O)c(F)cc1Cl)C(=O)NCC1CCCO1 (stereo not drawn) [I.5-221] |  |  | 100 | 90 | 100 | 100 |  | 100 | 100 | 80 | 100 | 100 | 100 | 80 | 20 |  |  | Lolium rigidum (Efficacy in %) [26]: 80%
7 | CC(C)C(Sc1cc(-n2c(=O)cc(C(F)(F)F)n(C)c2=O)c(F)cc1Cl)C(=O)NCC1CCCO1 (stereo not drawn) [I.6-221, 2-({2-Chloro-4-fluoro-5-[3-methyl-2,6-dioxo-4-(trifluoromethyl)-3,6-dihydropyrimidin-1(2H)-yl]phenyl}sulfanyl)-3-methyl-N-(tetrahydrofuran-2-ylmethyl)butanamide] |  |  | 100 | 80 | 100 | 100 | 90 | 100 | 100 | 80 | 100 | 100 | 100 | 100 |  |  |  | Lolium rigidum (Efficacy in %) [26]: 80%
8 | Cn1c(C(F)(F)F)cc(=O)n(-c2cc(SCC(C)(C)C(=O)OC3CCOC3)c(Cl)cc2F)c1=O (stereo not drawn) [I.48-121] |  |  |  | 80 | 100 | 100 | 80 | 100 | 100 |  | 100 | 100 | 100 | 80 | 0 |  | 0 | 

From US11497212B2, “Substituted thiophenyl uracils, salts thereof and the use thereof as herbicidal agents” (Syngenta Crop Protection AG, priority 2017, dated 2022)
